# Experimental data published in patent US11203594B2, “Anti-proliferative agents for treating PAH” (Pfizer Inc., priority 2019, dated 2021).
# How the values were obtained:
# Type in all cases: biochemical
# CDK6/Cyclin D1 = CDK6/Cyclin D1 (Homo sapiens (Human), UniProt Q00534); assay: CDK6/Cyclin D1 Mobility Shift Assay (MSA), Ki by Morrison equation; conditions: geometric mean, tested in CDK6/D1 Ki assay using MSA
# Text: CDK6/Cyclin D1 Mobility Shift Assay (MSA)
# The purpose of the CDK6/Cyclin D1 assay is to evaluate the inhibition (% inhibition, Kiapp and Ki values) in the presence of small molecule inhibitors by using a fluorescence based microfluidic mobility shift assay. CDK6/Cyclin D1 catalyzes the production of ADP from ATP that accompanies the phosphoryl transfer to the substrate peptide 5-FAM-Dyrktide The mobility shift assay electrophoretically separates the fluorescently labeled peptides (substrate and phosphorylated product) following the kinase reaction. Both substrate and product are measured and the ratio of these values is used to generate % conversion of substrate to product by the LabChip EZ Reader. Typical reaction solutions contained 2% DMSO (±inhibitor), 2% glycerol, 10 mM MgCl2, 1 mM DTT, 3.5 mM ATP, 0.005% Tween 20 (TW-20), 3 μM 5-FAM-Dyrktide, 4 nM activated CDK6/Cyclin D1 in 40 mM HEPES buffer at pH 7.5. […]
# For all the CDK4 and CDK6 assays the Ki constant for compounds were calculated for each enzyme using the Morrison equation. Fractional activity was measured at different compound concentrations, [I] and the data fit to the Morrison equation where [E] is the enzyme concentration, [S] is the ATP concentration, and Kn^App is the apparent Km for ATP for each enzyme under each assay format. […]
# CDK4/Cyclin D1 = CDK4/Cyclin D1 (Homo sapiens (Human), UniProt P11802); assay: CDK4/Cyclin D1 CHEF assay (Chelation-Enhanced Fluorescence), Ki by Morrison equation; conditions: geometric mean; tested in CHEF Assay; read-out: CDK4/Cyclin D1 GMean Ki
# Text: (§1) In Vitro Purified Enzyme Assays to Determine Potency for CDKs
# (§2) CDK4/Cyclin D1 and CDK6/Cylcin D3 CHEF Assay
# (§3) The Chelation-Enhanced Fluorescence (CHEF) monitors the phosphorylation state in real time where the level of fluorescence is directly proportional to the amount of phosphorylated substrate. CHEF exploits a synthetic α-amino acid with a side chain bearing an 8-hydroxyquinoline derivative (sulfonamido-oxine, Sox) which, upon coordination to Mg(II), relays information on the phosphorylation state of a proximal serine, threonine or tyrosine residue in peptide-based kinase substrates. Phosphorylation of a specific peptide (Catalog # AQT0258) from AssayQuant Technologies results in an increase in fluorescence at the excitation and emission wavelengths of 360 nm Ex/485 nm Em.
# (§4) Examples along with DMSO (negative) and Palbociclib (positive) controls were added to 384-well plates at 100-fold their final concentrations followed by the addition of 10 nM CDK4/Cyclin D1 (LJIC-2007F1) or 10 nM CDK6/Cyclin D3 (LJIC-2009H2) for a 20 minute pre-incubation in assay buffer containing 40 mM HEPES, 1 mM Dithiothreito (DTT, 10 mM MgCl2, 1% Glycerol, 0.1% BSA. Enzyme reactions were initiated by the addition of AssayQuant Technologies peptide and ATP substrates (10 μM CHEF peptide (Catalog # AQT0258), 2 mM ATP) and allowed to proceed for 2 hours followed by fluorescence read of the reaction. Ki determinations were made from a plot of the fractional velocity as a function of inhibitor concentration fit to the Morrison equation with the enzyme concentration as a variable.
# (§5) For all the CDK4 and CDK6 assays the Ki constant for compounds were calculated for each enzyme using the Morrison equation. Fractional activity was measured at different compound concentrations, [I] and the data fit to the Morrison equation where [E] is the enzyme concentration, [S] is the ATP concentration, and Kn^App is the apparent Km for ATP for each enzyme under each assay format. With the Ki calculations dependent on the assay conditions for each assay format the resulting Ki becomes assay independent with a strong one to one correlation of Ki values for compounds tested in both assay formats.
# (§6) In Table 2, assay data are presented to two (2) significant figures as the geometric mean (Ki) based on the number of replicates listed (Number). A cell having NA means there was no data for that Example in the indicated assay.
# CDK6/Cyclin D3 = CDK6/Cyclin D3 (Homo sapiens (Human), UniProt Q00534); assay: CDK6/Cyclin D3 CHEF assay (Chelation-Enhanced Fluorescence), Ki by Morrison equation; conditions: geometric mean; tested in CHEF Assay; read-out: CDK6/Cyclin D3: GMean Ki
# Text: as §1, §2, §3, §4, §5, §6
# Sequence of CDK4/Cyclin D1 (P11802 whole entry): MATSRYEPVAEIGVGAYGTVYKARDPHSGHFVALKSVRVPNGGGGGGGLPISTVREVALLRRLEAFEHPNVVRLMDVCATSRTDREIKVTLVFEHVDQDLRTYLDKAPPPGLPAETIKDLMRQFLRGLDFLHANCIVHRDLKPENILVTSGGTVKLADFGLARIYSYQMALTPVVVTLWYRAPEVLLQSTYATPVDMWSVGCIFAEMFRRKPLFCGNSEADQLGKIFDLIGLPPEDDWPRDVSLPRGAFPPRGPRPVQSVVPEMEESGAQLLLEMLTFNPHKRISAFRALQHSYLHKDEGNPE
# Sequence of CDK4/Cyclin D1 (P24385 whole entry partner): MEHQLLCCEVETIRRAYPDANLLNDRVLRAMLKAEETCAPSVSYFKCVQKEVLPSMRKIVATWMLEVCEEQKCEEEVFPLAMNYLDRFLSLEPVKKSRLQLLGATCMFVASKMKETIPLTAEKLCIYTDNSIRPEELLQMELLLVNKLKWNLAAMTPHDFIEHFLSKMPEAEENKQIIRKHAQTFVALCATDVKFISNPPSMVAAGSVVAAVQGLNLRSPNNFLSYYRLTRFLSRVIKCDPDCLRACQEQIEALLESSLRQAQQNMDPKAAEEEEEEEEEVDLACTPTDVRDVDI
# Sequence of CDK6/Cyclin D3 (Q00534 whole entry): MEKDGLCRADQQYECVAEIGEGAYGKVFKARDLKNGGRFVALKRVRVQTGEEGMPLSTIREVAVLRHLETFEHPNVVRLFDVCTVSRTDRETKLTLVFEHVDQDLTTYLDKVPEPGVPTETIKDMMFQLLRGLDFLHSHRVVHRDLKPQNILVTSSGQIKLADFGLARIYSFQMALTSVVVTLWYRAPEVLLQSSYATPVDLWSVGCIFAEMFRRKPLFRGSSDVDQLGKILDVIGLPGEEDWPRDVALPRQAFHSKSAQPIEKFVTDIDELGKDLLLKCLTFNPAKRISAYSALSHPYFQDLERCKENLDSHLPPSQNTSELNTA
# Sequence of CDK6/Cyclin D3 (P30281 whole entry partner): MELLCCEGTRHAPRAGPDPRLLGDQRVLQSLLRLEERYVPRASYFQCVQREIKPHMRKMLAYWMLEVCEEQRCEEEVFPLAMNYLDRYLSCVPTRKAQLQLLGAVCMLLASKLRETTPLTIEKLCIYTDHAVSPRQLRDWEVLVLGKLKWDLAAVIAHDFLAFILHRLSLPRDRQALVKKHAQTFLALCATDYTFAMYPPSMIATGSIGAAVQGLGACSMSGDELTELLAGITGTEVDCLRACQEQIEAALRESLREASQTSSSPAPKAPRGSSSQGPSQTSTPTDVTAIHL
# Sequence of CDK6/Cyclin D1 (Q00534 whole entry): as the sequence (Q00534 whole entry) above
# Sequence of CDK6/Cyclin D1 (P24385 whole entry partner): as the sequence (P24385 whole entry partner) above
Compound,Ki (CDK6/Cyclin D1; read-out: CDK6/Cyclin D3: GMean Ki (nM) (footnote c: CDK6/D1 Ki)),Ki (CDK4/Cyclin D1),Ki (CDK6/Cyclin D3),CDK6/Cyclin D3: GMean Ki (nM) (footnote c: CDK6/D1 Ki) (CDK6/Cyclin D1)
"CC(=O)c1c(C)c2cnc(N[C@@H]3CCOC[C@H]3O)nc2n([C@H]2CCC[C@]2(C)F)c1=O (single isomer, unassigned) [Example 22]",2.8 nM,,,
"CC(=O)c1c(C)c2cnc(N[C@@H]3CCOC[C@H]3O)nc2n([C@@H]2CCC[C@]2(C)F)c1=O (mixture of isomers) [Example 17, 6-Acetyl-8-[(1R,2S)-2-fluoro-2-methylcyclopentyl]-2-{[(3S,4R)-3-hydroxytetrahydro-2H-pyran-4-yl]amino}-5-methylpyrido[2,3-d]pyrimidin-7(8H)-one and 6-Acetyl-8-[(1S,2R)-2-fluoro-2-methylcyclopentyl]-2-{[(3S,4R)-3-hydroxytetrahydro-2H-pyran-4-yl]amino}-5-methylpyrido[2,3-d]pyrimidin-7(8H)-one]",,,,10.5^c nM
"CC(=O)c1c(C)c2cnc(N[C@@H]3CCOC[C@H]3O)nc2n([C@@H]2CCC[C@]2(C)F)c1=O (mixture of isomers) [Example 16, 6-Acetyl-8-[(1R,2S)-2-fluoro-2-methylcyclopentyl]-2-{[(3S,4R)-3-hydroxytetrahydro-2H-pyran-4-yl]amino}-5-methylpyrido[2,3-d]pyrimidin-7(8H)-one and 6-Acetyl-8-[(1S,2R)-2-fluoro-2-methylcyclopentyl]-2-{[(3S,4R)-3-hydroxytetrahydro-2H-pyran-4-yl]amino}-5-methylpyrido[2,3-d]pyrimidin-7(8H)-one]",,2.6 nM,5 nM,
"CC(=O)c1c(C)c2cnc(N[C@@H]3CCOC(C)(C)[C@H]3O)nc2n(C2CCCC2)c1=O (mixture of isomers) [Example 8, 6-Acetyl-8-cyclopentyl-2-{[(3S,4R)-3-hydroxy-2,2-dimethyltetrahydro-2H-pyran-4-yl]amino}-5-methylpyrido[2,3-d]pyrimidin-7(8H)-one and 6-Acetyl-8-cyclopentyl-2-{[(3R,4S)-3-hydroxy-2,2-dimethyltetrahydro-2H-pyran-4-yl]amino}-5-methylpyrido[2,3-d]pyrimidin-7(8H)-one]",,> 1200 nM,> 560 nM,
CC(=O)c1c(C)c2cnc(N[C@@H]3CCOC[C@H]3O)nc2n([C@H]2CC[C@H](N(C)C)CC2)c1=O [Example 25],,36 nM,110 nM,
CC(=O)c1c(C)c2cnc(N[C@@H]3CCOC[C@H]3O)nc2n(C2CCNCC2)c1=O [Example 32],,16 nM,27 nM,
CC(=O)c1c(C)c2cnc(N[C@@H]3CCOC[C@H]3O)nc2n([C@@H]2CCNC2)c1=O [Example 27],,9.9 nM,25 nM,
CC(=O)c1c(C)c2cnc(N[C@@H]3CCOC[C@H]3O)nc2n([C@H]2CCN(C)C2)c1=O [Example 26],,13 nM,39 nM,

# More lines, main results first:
Ki (CDK6/Cyclin D1; read-out: CDK6/Cyclin D3: GMean Ki (nM) (footnote c: CDK6/D1 Ki)),Ki (CDK4/Cyclin D1),Ki (CDK6/Cyclin D3),Compound,CDK6/Cyclin D3: GMean Ki (nM) (footnote c: CDK6/D1 Ki) (CDK6/Cyclin D1)
,0.9 nM,2.6 nM,"CC(=O)c1c(C)c2cnc(N[C@@H]3CCOC[C@H]3O)cc2n(C2CCC(O)C2)c1=O (single isomer, unassigned) [Example 14]",
,34 nM,16 nM,"CC(=O)c1c(C)c2cnc(N[C@@H]3CCOC[C@H]3O)cc2n([C@H]2CCOC2)c1=O [Example 11, 3-Acetyl-7-{[(3S,4R)-3-hydroxytetrahydro-2H-pyran-4-yl]amino}-4-methyl-1-[(3S)-tetrahydrofuran-3-yl]-1,6-naphthyridin-2(1H)-one]",
,62 nM,130 nM,"CC(=O)c1c(C)c2cnc(N[C@H]3CCOC[C@@H]3O)cc2n(C2CCCC2)c1=O [Example 33, 3-acetyl-1-cyclopentyl-7-{[(3R,4S)-3-hydroxytetrahydro-2H-pyran-4-yl]amino}-4-methyl-1,6-naphthyridin-2(1H)-one]",
,27 nM,29 nM,CC(=O)c1c(C)c2cnc(N[C@@H]3CCOC[C@H]3O)nc2n([C@H]2CCOC2)c1=O [Example 31],
,9.6 nM,34 nM,"CC(=O)c1c(C)c2cnc(N[C@@H]3CCOC[C@H]3O)nc2n([C@H]2CCNC2)c1=O [Example 18, 6-Acetyl-2-{[(3S,4R)-3-hydroxytetrahydro-2H-pyran-4-yl]amino}-5-methyl-8-[(3S)-pyrrolidin-3-yl]pyrido[2,3-d]pyrimidin-7(8H)-one]",
